From patent US10208030B2, “GPR119 agonist compounds” (Mankind Pharma Ltd., priority 2016, dated 2019) come the findings set out here.

One assay addresses T1, hGPR119 (Homo sapiens, UniProt Q8TDV5).
T1 construct: expressed in transfected cells; host or cells: CHO cells (CHO-hGPR119)
T1 sequence (Q8TDV5 1-335): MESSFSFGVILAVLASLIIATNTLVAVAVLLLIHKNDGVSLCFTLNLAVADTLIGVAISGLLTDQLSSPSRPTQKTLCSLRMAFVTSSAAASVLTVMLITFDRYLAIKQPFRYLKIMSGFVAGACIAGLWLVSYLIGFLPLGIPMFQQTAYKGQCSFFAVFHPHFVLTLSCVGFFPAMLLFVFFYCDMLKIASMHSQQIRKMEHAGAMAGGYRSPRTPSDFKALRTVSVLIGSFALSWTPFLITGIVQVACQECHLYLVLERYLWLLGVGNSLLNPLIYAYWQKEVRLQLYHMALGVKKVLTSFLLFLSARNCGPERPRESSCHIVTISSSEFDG
Kind of assay: In vitro cyclic AMP assay (Cisbio HTRF) in CHO-hGPR119 cells. Format: cell-based. The following applies: 1 h, cAMP, 1 μM, 60 min, read-out: Induction (% induction at 1 μM). As to the method:
cAMP measurements were done using Cisbio dynamic 2 HTRF kit according to the manufacturer's protocol. Briefly, CHO-hGPR119 cells were plated at a cell density of 5000 cells/well/5 μl into a white small volume 384 well plate. The final concentrations of IBMX and DMSO used were 1 mM and 0.5% respectively. Cells were treated with various concentrations of the test compound for 60 min at room temperature. Cells were lysed by buffer containing Anti-cAMP antibody and d2-cAMP reagents and incubated for 1 hour at room temperature. HTRF was measured at 337 nm excitation and emission wavelengths of 665 nm and 620 nm on a microplate reader (Flurostar, BMG Labtech). Graphpad prism software was utilized for EC50 determinations.
Background: In TR-FRET formats the signal depends on donor and acceptor labels being close together.
`CCCc1cnc(N2CCC([C@H](C)Oc3nn4cc(-c5ccc(S(C)(=O)=O)cc5F)nc4s3)CC2)nc1` [Compound 1085, 2-((S)-1-(1-(5-propylpyrimidin-2-yl)piperidin-4-yl)ethoxy)-6-(2-fluoro-4-(methylsulfonyl)phenyl)imidazo[2,1-b][1,3,4]thiadiazole]: the activation at 1 µM came to 74%. The same measure, in the same setting: to `CCOC(=O)N1CCC(C(C)Oc2nn3cc(-c4ccc(S(C)(=O)=O)cc4F)nc3s2)CC1` (stereo not drawn) [Compound 1107, Ethyl 4-(1-(6-(2-fluoro-4-(methylsulfonyl)phenyl)imidazo[2,1-b][1,3,4]thiadiazol-2-yloxy)ethyl)piperidine-1-carboxylate] belongs 67%. The same measure, in the same setting: the result for `CC(C)c1noc(N2CCC([C@H](C)Oc3nn4cc(-c5ccc(S(C)(=O)=O)c(F)c5)nc4s3)CC2)n1` [Compound 1078, 2-((S)-1-(1-(3-isopropyl-1,2,4-oxadiazol-5-yl)piperidin-4-yl)ethoxy)-6-(3-fluoro-4-(methylsulfonyl)phenyl)imidazo[2,1-b][1,3,4]thiadiazole] reads 54%; that for `CC(C)c1noc(C2CCN(c3nsnc3-c3ccc(S(C)(=O)=O)cc3)CC2)n1` [Compound 1007, 3-isopropyl-5-(1-(4-(4-(methylsulfonyl)phenyl)-1,2,5-thiadiazol-3-yl)piperidin-4-yl)-1,2,4-oxadiazole], -8%; that for `CC(C)c1noc(N2CCC(COc3nn4cc(-c5ccc(C#N)cc5)nc4s3)CC2)n1` [Compound 1053, 4-(2-((1-(3-isopropyl-1,2,4-oxadiazol-5-yl)piperidin-4-yl)methoxy)imidazo[2,1-b][1,3,4]thiadiazol-6-yl)benzonitrile], 49%.

Consider `CN(c1nn2cc(-c3ccc(S(C)(=O)=O)cc3)nc2s1)C1CCN(C(N)=O)CC1` [Compound 1025, 4-(methyl(6-(4-(methylsulfonyl)phenyl)imidazo[2,1-b][1,3,4]thiadiazol-2-yl)amino)piperidine-1-carboxamide], for which the activation at 1 µM amounted to 11%. The same measure, in the same setting: to `CS(=O)(=O)c1ccc(OCc2cn3nc(C4CCN(Cc5ccccc5)CC4)sc3n2)cc1` [Compound 1038, 2-(1-benzylpiperidin-4-yl)-6-((4-(methylsulfonyl)phenoxy)methyl)imidazo[2,1-b][1,3,4]thiadiazole] belongs 6%; to `CCc1cnc(N2CCC(c3nsnc3-c3ccc(S(C)(=O)=O)cc3)CC2)nc1` [Compound 1004, 3-(1-(5-ethylpyrimidin-2-yl)piperidin-4-yl)-4-(4-(methylsulfonyl)phenyl)-1,2,5-thiadiazole], 6%; to `CC(C)c1noc(N2CCC([C@@H](C)Oc3nn4c(F)c(-c5ccc(S(C)(=O)=O)cc5)nc4s3)CC2)n1` [Compound 1066, (R)-5-(4-(1-((5-fluoro-6-(4-(methylsulfonyl)phenyl)imidazo[2,1-b][1,3,4]thiadiazol-2-yl)oxy)ethyl)piperidin-1-yl)-3-isopropyl-1,2,4-oxadiazole], 72%. On the same count and under the same terms, to `C[C@H](Oc1nn2cc(-c3ccc(S(C)(=O)=O)cc3)nc2s1)C1CCN(c2nc(C(F)(F)F)no2)CC1` [Compound 1077, 2-((S)-1-(1-(3-(trifluoromethyl)-1,2,4-oxadiazol-5-yl)piperidin-4-yl)ethoxy)-6-(4-(methylsulfonyl)phenyl)imidazo[2,1-b][1,3,4]thiadiazole] belongs 33%; to `CC(C)c1noc(N2CCC(C(C)Oc3nn4cc(-c5ccc(S(C)(=O)=O)nc5)nc4s3)CC2)n1` (stereo not drawn) [Compound 1055, 3-isopropyl-5-(4-(1-((6-(6-(methylsulfonyl)pyridin-3-yl)imidazo[2,1-b][1,3,4]thiadiazol-2-yl)oxy)ethyl)piperidin-1-yl)-1,2,4-oxadiazole], 76%; to `CCCc1cnc(N2CCC(Oc3nc(-c4ccc(S(C)(=O)=O)nc4)ns3)CC2)nc1` [Compound 1123, 2-(4-(3-(6-(methylsulfonyl)pyridin-3-yl)-1,2,4-thiadiazol-5-yloxy)piperidin-1-yl)-5-propylpyrimidine], 18%.

For the molecule `CC(C)c1noc(C2CCN(c3nn4cc(-c5ccncc5)nc4s3)CC2)n1` [Compound 1051, 3-isopropyl-5-(1-(6-(pyridin-4-yl)imidazo[2,1-b][1,3,4]thiadiazol-2-yl)piperidin-4-yl)-1,2,4-oxadiazole], the activation at 1 µM came to 7%. Still for that read-out and setting: to `CN(C)C(=O)N1CCC(c2nn3cc(-c4ccc(S(C)(=O)=O)cc4)nc3s2)CC1` [Compound 1033, N,N-dimethyl-4-(6-(4-(methylsulfonyl)phenyl)imidazo[2,1-b][1,3,4]thiadiazol-2-yl)piperidine-1-carboxamide] belongs 2%; to `CC(C)c1noc(C2CCN(c3nsnc3COc3ccc(S(C)(=O)=O)cc3F)CC2)n1` [Compound 1006, 5-(1-(4-((2-fluoro-4-(methylsulfonyl)phenoxy)methyl)-1,2,5-thiadiazol-3-yl)piperidin-4-yl)-3-isopropyl-1,2,4-oxadiazole], 9%; to `CC(C)c1noc(N2CCC([C@H](C)Oc3nn4cc(-c5cc[n+]([O-])cc5)nc4s3)CC2)n1` [Compound 1068, (S)-4-(2-(1-(1-(3-isopropyl-1,2,4-oxadiazol-5-yl)piperidin-4-yl)ethoxy)imidazo[2,1-b][1,3,4]thiadiazol-6-yl)pyridine 1-oxide], 59%. On the same count and under the same terms, the result for `CC(C)c1noc(N2CCC(COc3nc(-c4ccc(S(C)(=O)=O)cc4)ns3)CC2)n1` [Compound 1117, 4-((3-(4-(methylsulfonyl)phenyl)-1,2,4-thiadiazol-5-yloxy)methyl)-1-(3-isopropyl-1,2,4-oxadiazol-5-yl)piperidine] reads 2%; that for `CC(C)c1noc(C2CCN(c3nn4c(Cl)c(-c5ccc(S(C)(=O)=O)cc5)nc4s3)CC2)n1` [Compound 1044, 5-(1-(5-chloro-6-(4-(methylsulfonyl)phenyl)imidazo[2,1-b][1,3,4]thiadiazol-2-yl)piperidin-4-yl)-3-isopropyl-1,2,4-oxadiazole], 71%; that for `CC(C)c1cnc(N2CCC(C(C)Oc3nn4cc(-c5ccc(S(C)(=O)=O)cc5)nc4s3)CC2)nc1` (stereo not drawn) [Compound 1070, 2-(1-(1-(5-isopropylpyrimidin-2-yl)piperidin-4-yl)ethoxy)-6-(4-(methylsulfonyl)phenyl)imidazo[2,1-b][1,3,4]thiadiazole], 55%. For `CCc1cnc(N2CCC(C(C)Oc3nn4cc(-c5ccncc5)nc4s3)CC2)nc1` (stereo not drawn) [Compound 1056, 2-(1-(1-(5-ethylpyrimidin-2-yl)piperidin-4-yl)ethoxy)-6-(pyridin-4-yl)imidazo[2,1-b][1,3,4]thiadiazole], the activation at 1 µM came out at 73%. On the same count and under the same terms, to `CC(C)c1noc(N2CCC(C(C)Oc3nn4cc(-c5ccc(C(=O)N(C)C)cc5)nc4s3)CC2)n1` (stereo not drawn) [Compound 1048, 4-(2-(1-(1-(3-isopropyl-1,2,4-oxadiazol-5-yl)piperidin-4-yl)ethoxy)imidazo[2,1-b][1,3,4]thiadiazol-6-yl)-N,N-dimethylbenzamide] belongs 56%.

In the case of `CCOC(=O)N1CCC([C@H](C)Oc2nn3cc(-c4ccc(S(C)(=O)=O)cc4F)nc3s2)CC1` [Compound 1113, ethyl 4-((S)-1-(6-(2-fluoro-4-(methylsulfonyl)phenyl)imidazo[2,1-b][1,3,4]thiadiazol-2-yloxy)ethyl)piperidine-1-carboxylate], the activation at 1 µM stood at 68%. On the same count and under the same terms, the result for `CC(C)OC(=O)N1CCN(c2nn3cc(-c4ccc(S(C)(=O)=O)cc4)nc3s2)CC1` [Compound 1020, isopropyl 4-(6-(4-(methylsulfonyl)phenyl)imidazo[2,1-b][1,3,4]thiadiazol-2-yl)piperazine-1-carboxylate] reads 1%; that for `CCc1cnc(N2CCC(C(C)Oc3nn4cc(-c5ccc(S(C)(=O)=O)nc5F)nc4s3)CC2)nc1` (stereo in doubt) [Compound 1102, 2-((S)-1-(1-(5-ethylpyrimidin-2-yl)piperidin-4-yl)ethoxy)-6-(2-fluoro-6-(methylsulfonyl)pyridin-3-yl)imidazo[2,1-b][1,3,4]thiadiazole], 84%. The same measure, in the same setting: the result for `CC(C)c1noc(C2CCN(c3nn4c(Cl)c(-c5ccncc5)nc4s3)CC2)n1` [Compound 1052, 5-(1-(5-chloro-6-(pyridin-4-yl)imidazo[2,1-b][1,3,4]thiadiazol-2-yl)piperidin-4-yl)-3-isopropyl-1,2,4-oxadiazole] reads 12%; that for `CS(=O)(=O)c1ccc(-c2cn3nc(N4CCC(c5nc(C6CC6)no5)CC4)sc3n2)cc1` [Compound 1045, 3-cyclopropyl-5-(1-(6-(4-(methylsulfonyl)phenyl)imidazo[2,1-b][1,3,4]thiadiazol-2-yl)piperidin-4-yl)-1,2,4-oxadiazole], 22%.

Still in this assay, the particulars now being: cAMP, class symbols, legend not given.
On to `CCCc1cnc(N2CCC([C@H](C)Oc3nn4cc(-c5ccc(S(C)(=O)=O)cc5F)nc4s3)CC2)nc1` [Compound 1085, 2-((S)-1-(1-(5-propylpyrimidin-2-yl)piperidin-4-yl)ethoxy)-6-(2-fluoro-4-(methylsulfonyl)phenyl)imidazo[2,1-b][1,3,4]thiadiazole], for which the EC50 entry was “A++”.

As to `CC(C)c1noc(N2CCC([C@@H](C)Oc3nn4c(F)c(-c5ccc(S(C)(=O)=O)cc5)nc4s3)CC2)n1` [Compound 1066, (R)-5-(4-(1-((5-fluoro-6-(4-(methylsulfonyl)phenyl)imidazo[2,1-b][1,3,4]thiadiazol-2-yl)oxy)ethyl)piperidin-1-yl)-3-isopropyl-1,2,4-oxadiazole], the EC50 entry was “A+”. On to `CCOC(=O)N1CCC([C@H](C)Oc2nn3cc(-c4ccc(S(C)(=O)=O)cc4F)nc3s2)CC1` [Compound 1113, ethyl 4-((S)-1-(6-(2-fluoro-4-(methylsulfonyl)phenyl)imidazo[2,1-b][1,3,4]thiadiazol-2-yloxy)ethyl)piperidine-1-carboxylate], for which the EC50 entry was “A+”.

On to `CCc1cnc(N2CCC(C(C)Oc3nn4cc(-c5ccc(S(C)(=O)=O)nc5F)nc4s3)CC2)nc1` (stereo in doubt) [Compound 1102, 2-((S)-1-(1-(5-ethylpyrimidin-2-yl)piperidin-4-yl)ethoxy)-6-(2-fluoro-6-(methylsulfonyl)pyridin-3-yl)imidazo[2,1-b][1,3,4]thiadiazole], for which the EC50 result is “A+”.
